Experimental findings from ChEMBL document CHEMBL1201862, “PubChem BioAssay data set” (2004) are described below.

Some test systems named below: BT-549; OVCAR-8; UACC-62; UO-31; SK-OV-3; UACC-257; TK-10; OVCAR-4; NCI/ADR-RES; M14; MDA-MB-435; SR; OVCAR-3; HCT-15; MDA-N; SW-620; LOX IMVI; DU-145; HL-60.
Assay in all cases: NCI-60 cell line screen, 48 h

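Five compound concentrations were applied to cells in 96-well plates for 48 hours; endpoints were derived by simple linear interpolation of the resulting dose-response curve. GI50 marks 50% less growth.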 Active and inactive are the calls of the source. Rule as the data show it: active = GI50 up to about 1.1 µM and inactive = higher.

As to `Oc1c(N2CCOCC2)cc(-c2cc(N3CCOCC3)c(O)c3ccccc23)c2ccccc12`, the GI50 with BT-549 was 1.77 µM (inactive); in the experiment with OVCAR-8, 1.6 µM (inactive); in the experiment on UACC-62 it was 2.13 µM (inactive); in the experiment on UO-31, 1.73 µM (inactive); in the experiment on SK-OV-3, 6.47 µM (inactive); with UACC-257 it was 2.29 µM (inactive). The GI50 in the experiment on TK-10 was 12.9 µM (inactive); with OVCAR-4 it was 1.93 µM (inactive); in the experiment on NCI/ADR-RES it was 3.13 µM (inactive); with M14, 1.56 µM (inactive); with MDA-MB-435, 1.38 µM (inactive); with SR, 0.659 µM (active). Moreover, the GI50 is 2.47 µM (inactive) in the experiment with OVCAR-3; 2.31 µM with HCT-15; 0.389 µM (active) with MDA-N; 2.04 µM (inactive) with SW-620; 1.77 µM (inactive) in the experiment on LOX IMVI.

Consider `O=C(N/C(=C/c1ccc(Cl)cc1)c1nc2ccccc2c(=O)n1Nc1ccc([N+](=O)[O-])cc1[N+](=O)[O-])c1ccccc1`, for which the GI50 in the experiment with BT-549, with OVCAR-8, in the experiment with UACC-62, with UO-31, in the experiment on SK-OV-3 and with UACC-257 was > 100 µM (inactive) throughout. Also, the GI50 with TK-10, with OVCAR-4, in the experiment with NCI/ADR-RES, in the experiment on M14, in the experiment on MDA-MB-435 and with SR was > 100 µM (inactive) each time. For the same molecule, the GI50 in the experiment on OVCAR-3 is > 100 µM (inactive); with HCT-15, > 100 µM; in the experiment with MDA-N, > 100 µM (inactive); with SW-620 it was > 100 µM (inactive); with LOX IMVI, > 100 µM (inactive).

For the molecule `Cc1ccc(S(=O)(=O)NC(=O)NC(CCC(N)=O)C(=O)O)cc1` (stereo not drawn), the GI50 with BT-549, in the experiment on OVCAR-8, in the experiment with UACC-62, in the experiment on DU-145, in the experiment on UO-31 and in the experiment on SK-OV-3 was > 100 µM (inactive) each time. The GI50 in the experiment on UACC-257 is > 100 µM (inactive); with TK-10 it was > 100 µM (inactive); in the experiment with OVCAR-4, > 100 µM (inactive); in the experiment on NCI/ADR-RES, > 100 µM (inactive); in the experiment with M14, > 100 µM (inactive); in the experiment with HL-60 it was 69.5 µM (inactive). Besides, the GI50 in the experiment with SR is > 100 µM (inactive); with HCT-15, > 100 µM; with MDA-N it was > 100 µM (inactive); in the experiment on SW-620 it was > 100 µM (inactive); in the experiment with LOX IMVI, > 100 µM (inactive).

Consider `CCOc1ccc(N/C(=C(/C(Cl)=C(/Cl)Nc2ccccc2)[N+](=O)[O-])n2nnc3ccccc32)cc1`, for which the GI50 in the experiment with BT-549 was 13.3 µM (inactive); in the experiment on UACC-62 it was 17.8 µM (inactive); in the experiment on DU-145, 45.9 µM (inactive); in the experiment on UO-31 it was 17.1 µM (inactive); in the experiment on SK-OV-3, 40 µM (inactive); in the experiment with UACC-257 it was 34.6 µM (inactive). The GI50 was 32.9 µM (inactive) in the experiment with TK-10; 42.5 µM (inactive) in the experiment with OVCAR-4; 20 µM (inactive) in the experiment on NCI/ADR-RES; 16 µM (inactive) with M14; 29.4 µM (inactive) with MDA-MB-435; 24.1 µM (inactive) with OVCAR-3. The results for the GI50 with HCT-15 and in the experiment on MDA-N were 12.8 µM and 19.8 µM (inactive), respectively.

Take `COc1cc2nc(-c3cccs3)oc(=O)c2cc1OC`: the GI50 was 42 µM (inactive) in the experiment on BT-549; 53.1 µM (inactive) in the experiment with OVCAR-8; > 100 µM (inactive) in the experiment with UACC-62; > 100 µM (inactive) in the experiment with DU-145; > 100 µM (inactive) with UO-31; > 100 µM (inactive) in the experiment with SK-OV-3. The GI50 was > 100 µM (inactive) in the experiment with UACC-257; > 100 µM (inactive) with TK-10; > 100 µM (inactive) in the experiment with OVCAR-4; 51.2 µM (inactive) in the experiment on NCI/ADR-RES; > 100 µM (inactive) with M14; > 100 µM (inactive) in the experiment with HL-60. Besides, the GI50 is > 100 µM (inactive) in the experiment with MDA-MB-435; > 100 µM (inactive) in the experiment on SR; > 100 µM (inactive) with OVCAR-3; > 100 µM in the experiment with HCT-15; > 100 µM (inactive) in the experiment on SW-620; > 100 µM (inactive) in the experiment on LOX IMVI.

For the molecule `COc1cccc(-c2nc(-c3cnccn3)n(Cc3ccccc3)n2)c1`, the GI50 in the experiment with BT-549 was > 100 µM (inactive); in the experiment on OVCAR-8 it was > 100 µM (inactive); in the experiment on UACC-62, 91.4 µM (inactive); in the experiment with DU-145, > 100 µM (inactive); in the experiment with UO-31 it was 73.5 µM (inactive); in the experiment with SK-OV-3 it was 75.9 µM (inactive). The GI50 was > 100 µM (inactive) with UACC-257; > 100 µM (inactive) in the experiment with TK-10; 21.6 µM (inactive) in the experiment with OVCAR-4; > 100 µM (inactive) with M14; > 100 µM (inactive) in the experiment on HL-60; > 100 µM (inactive) in the experiment with MDA-MB-435. Besides, the GI50 was > 100 µM (inactive) in the experiment on SR; > 100 µM (inactive) in the experiment on OVCAR-3; > 100 µM in the experiment on HCT-15; > 100 µM (inactive) with MDA-N; > 100 µM (inactive) with SW-620; > 100 µM (inactive) in the experiment with LOX IMVI.

In the case of `C=CCCC1(O)C(O)C(CO)O[C@H](O[C@@]2(CO)OC(CO)C(O)C2O)C1O` (stereo partly drawn), the GI50 in the experiment on BT-549, with OVCAR-8, in the experiment with DU-145, in the experiment on UACC-257, in the experiment on TK-10 and in the experiment on OVCAR-4 was > 100 µM (inactive) in each case. Moreover, the GI50 with NCI/ADR-RES was > 100 µM (inactive); with M14, > 100 µM (inactive); in the experiment with HL-60, > 100 µM (inactive); in the experiment with MDA-MB-435, > 100 µM (inactive); in the experiment on SR it was > 100 µM (inactive); with HCT-15, > 100 µM. The GI50 in the experiment with SW-620 and in the experiment on LOX IMVI was > 100 µM (inactive) each time.

Regarding `CCCCCCc1cc2cc(-c3csc(-c4ccc(OC)cc4)n3)c(=O)oc2cc1O`, the GI50 in the experiment with BT-549 was 2.36 µM (inactive); with UACC-62, 6.55 µM (inactive); in the experiment on DU-145, 11.7 µM (inactive); with UO-31, 6.7 µM (inactive); in the experiment on SK-OV-3, 15.2 µM (inactive); in the experiment on UACC-257 it was 8.51 µM (inactive). Also, the GI50 in the experiment on TK-10 is 14 µM (inactive); in the experiment on OVCAR-4, 2.48 µM (inactive); with M14, 12.2 µM (inactive); with HL-60 it was 33.3 µM (inactive); with MDA-MB-435, 4.9 µM (inactive); in the experiment with SR, 19.6 µM (inactive). The GI50 in the experiment on HCT-15 was 17.1 µM; in the experiment on SW-620 it was 6.61 µM (inactive); in the experiment on LOX IMVI, 12.6 µM (inactive).

With `C/C(=C\CO)CC/C=C(\C)CNc1ccc([N+](=O)[O-])cc1`, the GI50 was 10.1 µM (inactive) with BT-549; 30.8 µM (inactive) in the experiment with OVCAR-8; 27.5 µM (inactive) in the experiment with UACC-62; 50.4 µM (inactive) in the experiment on DU-145; 7.98 µM (inactive) in the experiment with UO-31; > 100 µM (inactive) in the experiment with SK-OV-3. The GI50 is 21.6 µM (inactive) in the experiment on UACC-257; 7.67 µM (inactive) in the experiment on TK-10; 2.98 µM (inactive) in the experiment with OVCAR-4; 22 µM (inactive) in the experiment with NCI/ADR-RES; 62.1 µM (inactive) in the experiment on M14; 19.6 µM (inactive) in the experiment with HL-60. Further, the GI50 in the experiment with MDA-MB-435 was 28.6 µM (inactive); with SR, 4.54 µM (inactive); in the experiment with OVCAR-3 it was 17.4 µM (inactive); in the experiment on HCT-15 it was 30.1 µM; with SW-620, 56.1 µM (inactive); with LOX IMVI, 22.3 µM (inactive).

Regarding `CCOC(=O)C(C/C=C/CO)N(C)C(=O)OC(C)(C)C` (stereo not drawn), the GI50 in the experiment on BT-549, with OVCAR-8, with UACC-62, with DU-145, in the experiment with UO-31 and in the experiment on SK-OV-3 was > 100 µM (inactive) in each case. The GI50 with UACC-257, in the experiment with TK-10, with OVCAR-4, in the experiment on NCI/ADR-RES, in the experiment with M14 and in the experiment with HL-60 was > 100 µM (inactive) each time. The GI50 in the experiment on SR is 94.8 µM (inactive); in the experiment on OVCAR-3, > 100 µM (inactive); in the experiment with HCT-15, > 100 µM; with MDA-N, > 100 µM (inactive); in the experiment on SW-620 it was > 100 µM (inactive); with LOX IMVI it was > 100 µM (inactive).

As to `COc1ccc(N(c2ccc(C#N)cc2)c2ccc(C#N)cc2)cc1`, the GI50 in the experiment with BT-549 is > 100 µM (inactive); with OVCAR-8, > 100 µM (inactive); in the experiment on UACC-62 it was > 100 µM (inactive); with DU-145, > 100 µM (inactive); in the experiment with UO-31, 22.2 µM (inactive); in the experiment with SK-OV-3, > 100 µM (inactive). In addition, the GI50 was > 100 µM (inactive) in the experiment with UACC-257; > 100 µM (inactive) in the experiment on TK-10; > 100 µM (inactive) in the experiment on OVCAR-4; > 100 µM (inactive) with M14; 3.97 µM (inactive) with HL-60; > 100 µM (inactive) in the experiment on MDA-MB-435. The GI50 with OVCAR-3 was 82.4 µM (inactive); with HCT-15, 75.2 µM; in the experiment with MDA-N it was > 100 µM (inactive); with SW-620, > 100 µM (inactive); with LOX IMVI it was 69.8 µM (inactive).

With `C=C(C)C1CCC(C(=O)O)CC1` (stereo not drawn), the GI50 in the experiment with BT-549, in the experiment on OVCAR-8, in the experiment with UACC-62, in the experiment on DU-145, in the experiment with UO-31 and in the experiment with SK-OV-3 was > 100 µM (inactive) in each case. Besides, the GI50 with UACC-257 is > 100 µM (inactive); with TK-10, > 100 µM (inactive); in the experiment on M14, > 100 µM (inactive); in the experiment with MDA-MB-435 it was > 100 µM (inactive); in the experiment on OVCAR-3, > 100 µM (inactive); in the experiment on HCT-15 it was > 100 µM. Further, the GI50 in the experiment with MDA-N, in the experiment with SW-620 and in the experiment with LOX IMVI was > 100 µM (inactive) in each case.
